Experimental data reported in patent publication US20050175695A1 (priority 2003, published 2005).
Counter-ions that a name gives are not always drawn.

How the values were obtained:
[1] = pH-solubility behaviour of carvedilol free base; format: physicochemical; conditions: pH values encountered in the distal small intestine and colon
[2] = both R and S isomer forms; cited from earlier work
[3] = Aqueous solubility at 25° C. of carvedilol free base and three salts (Table 13); format: physicochemical
Source text: Aliquots were taken out at various time-point, filtered through 0.45 μm Acrodisc GHP filter.

| Structure (SMILES) | solubility [1] [mg per ml] | alpha elimination phase [2] | aqueous solubility compared with free base [3] |
| --- | --- | --- | --- |
| COc1ccccc1OCCNCC(O)COc1cccc2[nH]c3ccccc3c12 (stereo not drawn) [Carvedilol Free Base] | ≤ 0.1 | about 1.5 hours |  |
| COc1ccccc1OCCNCC(O)COc1cccc2[nH]c3ccccc3c12 (stereo not drawn) [HBr salt, Carvedilol HBr] |  |  | much better aqueous solubility than the free base |
